From publication PMC9488892 (Medicinal Chemistry Research, 2022)

Assays:
[1] = target: T1, melatonin type II (MT2) receptor (Homo sapiens, UniProt P49286); type: cell-based
T1 sequence (P49286 1-362): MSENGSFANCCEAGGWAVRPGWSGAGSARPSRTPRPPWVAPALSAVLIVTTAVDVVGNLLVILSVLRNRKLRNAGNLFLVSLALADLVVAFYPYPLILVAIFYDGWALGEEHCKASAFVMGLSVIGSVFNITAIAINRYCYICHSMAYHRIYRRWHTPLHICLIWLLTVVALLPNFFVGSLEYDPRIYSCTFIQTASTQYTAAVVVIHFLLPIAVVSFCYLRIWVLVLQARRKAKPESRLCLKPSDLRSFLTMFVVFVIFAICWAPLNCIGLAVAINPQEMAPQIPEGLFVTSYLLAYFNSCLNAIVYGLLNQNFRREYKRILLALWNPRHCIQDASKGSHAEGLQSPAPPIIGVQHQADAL

[2] = target: melatonin type I (MT1) receptor (Homo sapiens, UniProt P48039); type: cell-based
melatonin type I (MT1) receptor, sequence (P48039 whole entry): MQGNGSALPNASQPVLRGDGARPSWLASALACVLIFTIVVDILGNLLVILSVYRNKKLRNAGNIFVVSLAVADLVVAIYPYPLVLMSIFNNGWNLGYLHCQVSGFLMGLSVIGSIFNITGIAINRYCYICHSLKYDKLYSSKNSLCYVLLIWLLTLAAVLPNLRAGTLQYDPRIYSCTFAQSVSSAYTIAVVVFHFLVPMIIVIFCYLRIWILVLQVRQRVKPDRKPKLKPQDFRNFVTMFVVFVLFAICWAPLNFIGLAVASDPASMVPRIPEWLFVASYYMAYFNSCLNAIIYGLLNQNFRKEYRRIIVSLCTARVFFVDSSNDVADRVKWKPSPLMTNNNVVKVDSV

Compound Cc1cc2c(cc1O)[C@@H](C)[C@H]1Oc3cc(C)c(O)cc3[C@@]1(CN1CCN(C)CC1)O2 [compound 13, (5aS,10aR,11R)-3,8,11-trimethyl-5a-((4-methylpiperazin-1-yl)methyl)-5a,10a-dihydro-11H-benzofuro[3,2-b]chromene-2,7-diol] has an EC50 [1] of 240 µM and an EC50 [2] of 200 µM.
